These results are taken from patent US8338450B2, “Compounds as dipeptidyl peptidase IV (DPP IV) inhibitors” (Lupin Limited, priority 2007, dated 2012).

The target in one data set is T1, human recombinant DPP-IV (Homo sapiens, UniProt P27487).
T1 construct: purchased R&D Systems, USA (or produced in-house)
As to the kind of experiment: Inhibition of human recombinant DPP-IV (Gly-Pro-AMC hydrolysis, fluorometric). The data set is classed as biochemical. Particulars: for IC50: human recombinant DPP-IV, 50 μM Gly-Pro-AMC, 30 min at 30° C.; for % inhibition at 10 nM: compound 10 nM, relative to vehicle controls. The method, boiled down:
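Enzyme (10 ng) was preincubated 15 min at 30° C. with compound (10 and 100 nM screen; 8 concentrations 0.1-1000 nM) in Tris-HCl pH 7.4, NaCl, KCl, BSA. 50 μM Gly-Pro-AMC was added for 30 min at 30° C. and AMC fluorescence was read (ex 360/em 460 nm). Results are given as % inhibition versus vehicle or as IC50.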

A further data set addresses T2, plasma DPP-IV (Rattus norvegicus, UniProt P14740).
T2 construct: from tissue; host or cells: EDTA-plasma of male Wistar rats dosed orally
The experiment in a line: Measurement of plasma DPP-IV activity in male Wistar rats after single oral dose. The data set is classed as in vivo. Particulars: 10 mg/kg, p.o.; for inhibition at 10 mg/kg: rat, po. Here is the method:
Overnight-fasted male animals were administered either vehicle or single oral doses of compounds. Blood samples were withdrawn from retro-bulbar venous plexus under anesthesia at several time points up to 24 h post-dose. EDTA-plasma was separated and DPP-IV activity was measured using a fluorometric assay. Assays were carried out in 96-well flat-bottom black microwell plates. A typical reaction contained 25 μl plasma, 50 μl of 50 μM substrate (Gly-Pro-AMC) and 25 μl assay buffer (25 mM Tris-HCl, pH 7.4, 140 mM NaCl, 10 mM KCl and 1% BSA) in a total reaction volume of 100 μl. Plasma samples were incubated with the substrate for 30 min at 30° C., following which the fluorescence was measured in a microplate fluorescence redaer (POLARstar Galaxy), with excitation and emission wavelengths set at 360 nm and 460 nm, respectively. Percent inhibition in plasma DPP-IV activity due to compounds was calculated by comparing with plasma from vehicle-treated animals.

Counter-ions that a name gives are not always drawn. Like-named read-outs stand apart in the source and are kept apart here.

T1 sequence (P27487 whole entry): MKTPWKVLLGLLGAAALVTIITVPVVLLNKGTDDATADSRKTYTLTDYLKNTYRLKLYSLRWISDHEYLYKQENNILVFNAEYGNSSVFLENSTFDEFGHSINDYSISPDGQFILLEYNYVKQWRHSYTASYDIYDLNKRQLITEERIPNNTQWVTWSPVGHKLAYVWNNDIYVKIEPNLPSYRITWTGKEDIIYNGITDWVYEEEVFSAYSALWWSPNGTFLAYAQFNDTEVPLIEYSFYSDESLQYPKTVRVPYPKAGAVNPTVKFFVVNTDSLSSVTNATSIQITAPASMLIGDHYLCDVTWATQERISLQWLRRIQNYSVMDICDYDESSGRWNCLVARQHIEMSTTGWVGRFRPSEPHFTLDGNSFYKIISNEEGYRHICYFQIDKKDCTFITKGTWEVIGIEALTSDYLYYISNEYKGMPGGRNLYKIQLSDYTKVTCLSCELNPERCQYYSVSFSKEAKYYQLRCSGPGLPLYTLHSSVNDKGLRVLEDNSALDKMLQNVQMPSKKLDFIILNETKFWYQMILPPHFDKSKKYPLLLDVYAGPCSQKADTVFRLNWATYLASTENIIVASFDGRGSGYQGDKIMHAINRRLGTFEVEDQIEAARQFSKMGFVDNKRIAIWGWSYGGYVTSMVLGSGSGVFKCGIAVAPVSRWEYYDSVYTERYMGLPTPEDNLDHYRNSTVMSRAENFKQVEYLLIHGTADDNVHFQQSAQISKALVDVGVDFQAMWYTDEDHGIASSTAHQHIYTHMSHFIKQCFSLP
T2 sequence (P14740 37-767 limits assumed): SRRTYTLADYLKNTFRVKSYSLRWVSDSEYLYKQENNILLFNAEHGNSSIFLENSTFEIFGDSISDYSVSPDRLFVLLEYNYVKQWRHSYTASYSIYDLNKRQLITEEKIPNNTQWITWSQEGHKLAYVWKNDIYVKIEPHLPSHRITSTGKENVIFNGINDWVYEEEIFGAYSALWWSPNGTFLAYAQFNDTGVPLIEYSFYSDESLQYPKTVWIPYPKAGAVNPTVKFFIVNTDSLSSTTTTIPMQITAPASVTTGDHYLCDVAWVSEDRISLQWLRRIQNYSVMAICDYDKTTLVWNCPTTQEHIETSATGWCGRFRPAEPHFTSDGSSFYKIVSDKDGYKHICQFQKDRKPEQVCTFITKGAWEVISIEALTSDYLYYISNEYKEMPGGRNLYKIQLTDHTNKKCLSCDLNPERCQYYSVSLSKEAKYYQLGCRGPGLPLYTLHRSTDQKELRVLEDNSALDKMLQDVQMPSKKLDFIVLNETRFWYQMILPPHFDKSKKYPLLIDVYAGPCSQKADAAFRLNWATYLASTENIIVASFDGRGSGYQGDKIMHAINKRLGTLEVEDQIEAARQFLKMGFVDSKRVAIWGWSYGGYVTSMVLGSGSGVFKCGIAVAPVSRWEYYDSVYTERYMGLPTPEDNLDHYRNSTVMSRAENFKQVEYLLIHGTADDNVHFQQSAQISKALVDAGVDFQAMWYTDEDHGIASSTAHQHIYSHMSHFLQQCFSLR

For `N[C@H](C(=O)N1[C@H](C(=O)O)C[C@@H]2C[C@@H]21)C1CC2CCC(C1)N2C(=O)c1ccc2c(c1)OCO2` (stereo partly drawn) (as salt: hydrochloride) [Compound 46, (1S,3S,5S)-2-{(2S)-2-Amino-2-[8-(benzo[1,3]-dioxole-5-carbonyl)-8-aza-bicyclo[3.2.1]-oct-3-yl]-exo-ethanoyl}-2-azabicyclo[3.1.0]hexane-3-carboxylic acid hydrochloride], the melting point was 280 °C (dec.). Still for that read-out and setting: the figure for `N#C[C@@H]1CCCN1C(=O)[C@@H](N)C1CC2CCC(C1)N2` (stereo partly drawn) (as salt: salt) [Compound 8, (2S)-1-{(2S)-2-Amino-2-[8-aza-bicyclo[3.2.1]oct-3-yl]-exo-ethanoyl}-pyrrolidin-2-carbonitrile trifluoro acetic acid salt] is 143 to 145 °C; for `N#C[C@H]1CSCN1C(=O)[C@@H](N)C1CC2CCC(C1)N2C(=O)c1ccc(C(F)(F)F)cc1` (stereo partly drawn) (as salt: salt) [Compound 20, (4S)-3-{(2S)-2-Amino-2-[8-(4-trifluoromethyl-benzoyl)-8-aza-bicyclo[3.2.1]oct-3-yl]-exo-ethanoyl}-thiazolidin-4-carbonitrile trifluoroacetetic acid salt] it is 159 to 161 °C. Same read-out and setting: the figure for `N#C[C@@H]1C[C@@H]2C[C@@H]2N1C(=O)[C@@H](N)C1CC2CCC(C1)N2C(=O)c1ccnc(F)c1` (stereo partly drawn) (as salt: salt) [Compound 28, (1S,3S,5S)-2-{(2S)-2-amino-2-[8-(2-fluoropyridine-4-carbonyl)-8-aza-bicyclo[3.2.1]-oct-3-yl]-exo-ethanoyl}-2-azabicyclo[3.1.0]-hexane-3-carbonitrile trifluoro acetic acid salt] is 112 to 115 °C; for `NC(=O)[C@@H]1C[C@@H]2C[C@@H]2N1C(=O)[C@@H](N)C1CC2CCC(C1)N2C(=O)c1ccc2c(c1)OCO2` (stereo partly drawn) (as salt: salt) [Compound 45, (1S,3S,5S)-2-{(2S)-2-Amino-2-[8-(benzo-[1,3]dioxole-5-carbonyl)-8-aza-bicyclo[3.2.1]oct-3-yl]-exo-ethanoyl}-2-azabicyclo[3.1.0]-hexane-3-carboxamide trifluoro acetic acid salt] it is 154 to 156 °C. On to `N#C[C@@H]1CCCN1C(=O)[C@@H](N)C1CC2CCC(C1)N2C(=O)c1cc(F)c(F)cc1F` (stereo partly drawn) [Compound 1, (2S)-1-{(2S)-2-Amino-2-[8-(2,4,5-trifluorobenzoyl)-8-aza-bicyclo[3.2.1]oct-3-yl]-exo-ethanoyl}-pyrrolidin-2-carbonitrile trifluoroacetic acid salt], for which the 50% inhibitory concentration (IC50) on human recombinant DPP-IV came to 2.2 nM. The inhibition at 10 mg/kg at plasma DPP-IV (4 h post-dose, read-out: Plasma DPP-IV Inhibition (%) 4 h) stood at 85%; on plasma DPP-IV (6 h post-dose, read-out: Plasma DPP-IV Inhibition (%) 6 h) it was 56%; on plasma DPP-IV (8 h post-dose, read-out: Plasma DPP-IV Inhibition (%) 8 h), 44%. Consider `N#C[C@@H]1CCCN1C(=O)[C@@H](N)C1CC2CCC(C1)N2C(=O)c1ccc(C(F)(F)F)cc1.O=C(O)C(F)(F)F` (stereo partly drawn) [Compound 2, (2S)-1-{(2S)-2-Amino-2-[8-(4-trifluoromethylbenzoyl)-8-aza-bicyclo[3.2.1]oct-3-yl]-exo-ethanoyl}-pyrrolidin-2-carbonitrile trifluoroacetic acid salt], for which, on human recombinant DPP-IV, the IC50 came out at 1.3 nM. Besides, the “Plasma DPP-IV Inhibition (%) 4 h” value at plasma DPP-IV (4 h post-dose) is recorded as 82%. In addition, the “Plasma DPP-IV Inhibition (%) 6 h” value on plasma DPP-IV (6 h post-dose) is on record as 52%. In addition, on plasma DPP-IV (8 h post-dose), the “Plasma DPP-IV Inhibition (%) 8 h” value amounted to 45%. In the case of `N#C[C@@H]1C[C@@H]2C[C@@H]2N1C(=O)[C@@H](N)[C@@H]1C[C@H]2CC[C@@H](C1)N2C(=O)c1ccncc1.O=C(O)C(F)(F)F` [Compound 25, (1S,3S,5S)-2-{(2S)-2-Amino-2-[8-(pyridine-4-carbonyl)-8-aza-bicyclo[3.2.1]oct-3-yl]-exo-ethanoyl}-2-azabicyclo[3.1.0]hexane-3-carbonitrile trifluoroacetic acid salt], at human recombinant DPP-IV, the IC50 is 3.61 nM. The “Plasma DPP-IV Inhibition (%) 4 h” value on plasma DPP-IV (4 h post-dose) worked out at 68%. For the same compound, the “Plasma DPP-IV Inhibition (%) 6 h” value on plasma DPP-IV (6 h post-dose) is 49%. In addition, the “Plasma DPP-IV Inhibition (%) 8 h” value on plasma DPP-IV (8 h post-dose) is reported as 51%. As to `N#C[C@@H]1C[C@@H]2C[C@@H]2N1C(=O)[C@@H](N)C1CC2CCC(C1)N2C(=O)C1CCCCC1.O=C(O)C(F)(F)F` (stereo partly drawn) [Compound 58, (1S,3S,5S)-2-{(2S)-2-Amino-2-[8-(cyclohexane-carbonyl)-8-aza-bicyclo[3.2.1]oct-3-yl]-exo-ethanoyl}-2-azabicyclo[3.1.0]hexane-3-carbonitrile trifluoroacetic acid salt], the “% inhibition at 10 nM” value at human recombinant DPP-IV turned out to be 31% inhibition at 10 nM. Take `CCC(CC)N1C2CCC1CC([C@H](N)C(=O)N1[C@H](C#N)C[C@@H]3C[C@@H]31)C2.O=C(O)C(F)(F)F` (stereo partly drawn) [Compound 59, (1S,3S,5S)-2-{(2S)-2-Amino-2-[8-(1-ethyl-propyl)-8-aza-bicyclo[3.2.1]oct-3-yl]-exo-ethanoyl}-2-azabicyclo[3.1.0]hexane-3-carbonitrile trifluoroacetic acid salt]: at human recombinant DPP-IV, the “% inhibition at 10 nM” value is recorded as 34% inhibition at 10 nM.

Consider `N#C[C@@H]1C[C@@H]2C[C@@H]2N1C(=O)[C@@H](N)C1CC2CCC(C1)N2C1CCCCC1.O=C(O)C(F)(F)F` (stereo partly drawn) [Compound 60, (1S,3S,5S)-2-{(2S)-2-Amino-2-(8-cyclohexyl-8-aza-bicyclo[3.2.1]oct-3-yl)-exo-ethanoyl}-2-azabicyclo[3.1.0]hexane-3-carbonitrile trifluoroacetic acid salt], for which the “% inhibition at 10 nM” value at human recombinant DPP-IV was determined as 10% inhibition at 10 nM. Still for that read-out and setting: the figure for `N#C[C@@H]1C[C@@H]2C[C@@H]2N1C(=O)[C@@H](N)C1CC2CCC(C1)N2C(=O)NS(=O)(=O)c1ccc(Cl)cc1.O=C(O)C(F)(F)F` (stereo partly drawn) [Compound 61, (1S,3S,5S)-2-{(2S)-2-Amino-2-[8-(4-chlorophenylsulfonylcarbamoyl)-8-aza-bicyclo[3.2.1]oct-3-yl]-exo-ethanoyl}-2-azabicyclo[3.1.0]hexane-3-carbonitrile trifluoroacetic acid salt] is 9% inhibition at 10 nM. As to `N[C@H](C(=O)N1CC(F)C1)C1CC2CCC(C1)N2C(=O)c1ccncc1F` (stereo partly drawn) [Compound 62, {(2S)-2-Amino-2-[8-(3-fluoropyridine-4-carbonyl)-8-aza-bicyclo[3.2.1]-oct-3-yl]-exo-ethanoyl}-3-fluoroazetidine trifluoroacetic acid salt], the inhibition at 0.01 µM on human recombinant DPP-IV (read-out: % inhibition at 10 nM) came out at 12%. Turning to `C#C[C@H]1CC[C@@H](C#N)N1C(=O)[C@@H](N)C1CC2CCC(C1)N2C(=O)c1ccc(C(F)(F)F)cc1` (stereo partly drawn) [Compound 63, (2S,5R)-1-{(2S)-2-Amino-2-[8-(4-trifluoromethyl-benzoyl)-8-aza-bicyclo[3.2.1]oct-3-yl]-exo-ethanoyl}-5-ethynyl-pyrrolidin-2-carbonitrile trifluoro acetic acid salt], the IC50 at human recombinant DPP-IV was 15.5 nM. Consider `C#C[C@H]1CC[C@@H](C#N)N1C(=O)[C@@H](N)C1CC2CCC(C1)N2C(=O)c1ccncc1` (stereo partly drawn) [Compound 64, (2S,5R)-1-{(2S)-2-Amino-2-[8-(pyridin-4-carbonyl)-8-aza-bicyclo[3.2.1]oct-3-yl]-exo-ethanoyl}-5-ethynyl-pyrrolidin-2-carbonitrile di trifluoro acetic acid salt], for which, at human recombinant DPP-IV, the IC50 is 11 nM. On the same count and under the same terms, the figure for `C#C[C@H]1CC[C@@H](C#N)N1C(=O)[C@@H](N)C1CC2CCC(C1)N2C(=O)c1ccncc1F` (stereo partly drawn) [Compound 65, (2S,5R)-1-{(2S)-2-Amino-2-[8-(3-fluoropyridin-4-carbonyl)-8-aza-bicyclo[3.2.1]oct-3-yl]-exo-ethanoyl}-5-ethynyl-pyrrolidin-2-carbonitrile trifluoroacetic acid salt] is 7.1 nM. For the compound `COc1ccccc1NC(=S)N1C2CCC1CC([C@H](N)C(=O)N1[C@H](C#N)C[C@@H]3C[C@@H]31)C2.O=C(O)C(F)(F)F` (stereo partly drawn) [Compound 68, (1S,3S,5S)-2-{(2S)-2-Amino-2-[8-(2-methoxyphenylthiocarbamoyl)-8-aza-bicyclo[3.2.1]oct-3-yl]-exo-ethanoyl}-2-azabicyclo[3.1.0]-hexane-3-carbonitrile trifluoroacetic acid salt], the “% inhibition at 10 nM” value at human recombinant DPP-IV is 16% inhibition at 10 nM. In the case of `CC(=O)N1CCC(C(=O)N2C3CCC2CC([C@H](N)C(=O)N2[C@H](C#N)C[C@@H]4C[C@@H]42)C3)CC1` (stereo partly drawn) [Compound 69, (1S,3S,5S)-2-{(2S)-2-Amino-2-[8-(1-acetyl-piperidin-4-carbonyl)-8-aza-bicyclo[3.2.1]oct-3-yl]-exo-ethanoyl}-2-azabicyclo[3.1.0]hexane-3-carbonitrile trifluoroacetic acid salt], at human recombinant DPP-IV, the IC50 worked out at 13 nM.
